Laboratory results reported in patent US20230382949A1 (HEPTARES THERAPEUTICS LIMITED, priority 2020, published 2023).
Starred links: 1 amine or outer side, 2 acyl side, 3 side chain; linkers in the order of their positions; H or OH if unused. Non-standard residues stand in square brackets, D forms with d. Residues, ends and D or L forms follow the SMILES beside them. *: point of attachment. Ala(piperidin-4-yl) = O=C([C@H](CC1CCN([*:3])CC1)N[*:1])[*:2]; Malonyl(2,2-Me2,histaminyl) = CC(C)(C(=O)NCCc1cnc[nH]1)C(=O)*; dBip = N[C@H](Cc1ccc(-c2ccccc2)cc1)C(=O)O; Oic = O=C(O)[C@@H]1C[C@@H]2CCCC[C@@H]2N1; Phe(4-Br) = N[C@@H](Cc1ccc(Br)cc1)C(=O)O; Phe(4-Cl) = N[C@@H](Cc1ccc(Cl)cc1)C(=O)O; hArg = N=C(N)NCCCC[C@H](N)C(=O)O; tBuAla = CC(C)(C)C[C@H](N)C(=O)O; 3Pal = N[C@@H](Cc1cccnc1)C(=O)O; Cba = N[C@@H](CC1CCC1)C(=O)O; Aib = CC(C)(N)C(=O)O

Experiments:
human Apelin receptor [1] = target: T1, human Apelin receptor (Homo sapiens, UniProt P35414); experiment: cAMP accumulation assay (HTRF), functional agonism of human Apelin receptors; assay type: cell-based; conditions: CHO cells stably expressing the human Apelin receptor, 3 uM forskolin; for Emax: CHO, Human Apelin agonist cAMP assay; for EC50: pEC50, Human Apelin agonist cAMP assay
T1 sequence (P35414 1-380): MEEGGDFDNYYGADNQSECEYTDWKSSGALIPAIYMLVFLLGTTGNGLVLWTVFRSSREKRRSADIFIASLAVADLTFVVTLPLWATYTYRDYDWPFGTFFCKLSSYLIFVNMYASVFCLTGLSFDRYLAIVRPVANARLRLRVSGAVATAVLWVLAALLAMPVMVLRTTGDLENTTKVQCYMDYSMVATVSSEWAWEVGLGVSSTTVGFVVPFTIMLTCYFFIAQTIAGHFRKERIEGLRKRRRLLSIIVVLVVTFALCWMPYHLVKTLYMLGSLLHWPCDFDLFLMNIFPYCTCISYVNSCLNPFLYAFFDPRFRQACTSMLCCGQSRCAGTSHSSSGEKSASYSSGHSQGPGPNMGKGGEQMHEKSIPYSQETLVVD
Excerpt: cAMP functional assay. cAMP production was quantified using the Homogeneous Time-Resolved Fluorescence (HTRF) cAMP dynamic-2 assay (Cisbio, France).

human Apelin receptor [2] = target: T2, human Apelin receptor (Homo sapiens, UniProt P35414); experiment: β-arrestin accumulation assay, functional agonism of human Apelin receptors; assay type: cell-based
T2 construct: host or cells: CHO-K1 cells
Procedure: β-arrestin assay. […] After 16 h incubation at 37° C. media was removed and cells were incubated at 37° C. for 90 min in serum free media containing increasing concentrations of test agonist. The assay reaction was stopped by adding detection reagent (DiscoveRx) and incubation for 60 min in the dark. Levels of receptor activation were then measured on a PheraStar fluorescence plate reader (BMG LabTech) and EC50 values were determined using Graphpad Prism.
T2 sequence (P32121 whole entry partner, one chain of several): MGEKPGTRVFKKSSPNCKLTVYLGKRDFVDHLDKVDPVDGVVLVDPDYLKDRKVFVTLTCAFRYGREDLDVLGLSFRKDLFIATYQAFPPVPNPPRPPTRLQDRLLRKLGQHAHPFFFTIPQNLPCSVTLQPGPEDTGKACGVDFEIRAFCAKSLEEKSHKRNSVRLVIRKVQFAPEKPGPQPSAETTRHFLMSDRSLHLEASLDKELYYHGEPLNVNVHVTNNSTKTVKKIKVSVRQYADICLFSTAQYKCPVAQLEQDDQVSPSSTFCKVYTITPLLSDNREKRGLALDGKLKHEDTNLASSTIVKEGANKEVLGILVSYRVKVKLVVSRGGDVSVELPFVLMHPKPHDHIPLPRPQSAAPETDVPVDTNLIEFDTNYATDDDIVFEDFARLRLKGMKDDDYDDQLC

Row | Structure (SMILES) | Emax (human Apelin receptor [1]) | EC50 (human Apelin receptor [1]) | EC50 (human Apelin receptor [2])
1 | CC(C)(C)C[C@H](NC(=O)[C@@H](CCCNC(=N)N)NC(=O)[C@@H]1CCCN1C(=O)[C@H](CCCCNC(=N)N)NC(=O)[C@H](CCC(N)=O)NC(=O)[C@@H](CCCNC(=N)N)NC(=O)C(C)(C)C(=O)NCCc1c[nH]cn1)C(=O)NC(C)(C)C(=O)N[C@@H](Cc1c[nH]cn1)C(=O)N[C@@H](CC1CCNCC1)C(=O)NCC(=O)N1[C@H](C(=O)N[C@@H](Cc2ccc(Br)cc2)C(=O)N2CCC[C@H]2C(=O)N[C@H](Cc2ccc(-c3ccccc3)cc2)C(=O)O)C[C@@H]2CCCC[C@@H]21 [Example 13] ({Malonyl(2,2-Me2,histaminyl)}-[dR]Q[hArg]P[dR][tBuAla][Aib]H[Ala(piperidin-4-yl)]G[Oic][Phe(4-Br)]P[dBip]-OH) | 72.9% | 25.1 nM | > 10000 nM
2 | CC(C)(NC(=O)[C@H](CC1CCC1)NC(=O)[C@@H](CCCNC(=N)N)NC(=O)[C@@H]1CCCN1C(=O)[C@H](CCCCNC(=N)N)NC(=O)[C@H](CCC(N)=O)NC(=O)[C@@H](CCCNC(=N)N)NC(=O)C(C)(C)C(=O)NCCc1c[nH]cn1)C(=O)N[C@@H](Cc1c[nH]cn1)C(=O)N[C@@H](CC1CCNCC1)C(=O)NCC(=O)N1[C@H](C(=O)N[C@@H](Cc2ccc(Br)cc2)C(=O)N2CCC[C@H]2C(=O)N[C@H](Cc2ccc(-c3ccccc3)cc2)C(=O)O)C[C@@H]2CCCC[C@@H]21 [Example 14] ({Malonyl(2,2-Me2,histaminyl)}-[dR]Q[hArg]P[dR][Cba][Aib]H[Ala(piperidin-4-yl)]G[Oic][Phe(4-Br)]P[dBip]-OH) | 77% | 7.94 nM | > 10000 nM
3 | CC(C)C[C@H](NC(=O)[C@@H](CCCNC(=N)N)NC(=O)[C@@H]1CCCN1C(=O)[C@H](CCCCNC(=N)N)NC(=O)[C@H](CCC(N)=O)NC(=O)[C@@H](CCCNC(=N)N)NC(=O)C(C)(C)C(=O)NCCc1c[nH]cn1)C(=O)NC(C)(C)C(=O)N[C@@H](Cc1cccnc1)C(=O)N[C@@H](CC1CCNCC1)C(=O)NCC(=O)N1[C@H](C(=O)N[C@@H](Cc2ccc(Br)cc2)C(=O)N2CCC[C@H]2C(=O)N[C@H](Cc2ccc(-c3ccccc3)cc2)C(=O)O)C[C@@H]2CCCC[C@@H]21 [Example 15] ({Malonyl(2,2-Me2,histaminyl)}-[dR]Q[hArg]P[dR]L[Aib][3Pal][Ala(piperidin-4-yl)]G[Oic][Phe(4-Br)]P[dBip]-OH) | 86.4% | 7.94 nM | > 10000 nM
4 | CC(C)C[C@H](NC(=O)[C@@H](CCCNC(=N)N)NC(=O)[C@@H]1CCCN1C(=O)[C@H](CCCCNC(=N)N)NC(=O)[C@H](CCC(N)=O)NC(=O)[C@@H](CCCNC(=N)N)NC(=O)C(C)(C)C(=O)NCCc1c[nH]cn1)C(=O)NC(C)(C)C(=O)N[C@@H](Cc1c[nH]cn1)C(=O)N[C@@H](CC1CCNCC1)C(=O)N[C@@H](C)C(=O)N1[C@H](C(=O)N[C@@H](Cc2ccc(Br)cc2)C(=O)N2CCC[C@H]2C(=O)N[C@H](Cc2ccc(-c3ccccc3)cc2)C(=O)O)C[C@@H]2CCCC[C@@H]21 [Example 16] ({Malonyl(2,2-Me2,histaminyl)}-[dR]Q[hArg]P[dR]L[Aib]H[Ala(piperidin-4-yl)]A[Oic][Phe(4-Br)]P[dBip]-OH) | 64.8% | 5.01 nM | > 1000 nM
5 | CC(C)C[C@H](NC(=O)[C@@H](CCCNC(=N)N)NC(=O)[C@@H]1CCCN1C(=O)[C@H](CCCCNC(=N)N)NC(=O)[C@H](CCC(N)=O)NC(=O)[C@@H](CCCNC(=N)N)NC(=O)C(C)(C)C(=O)NCCc1c[nH]cn1)C(=O)NC(C)(C)C(=O)N[C@@H](Cc1c[nH]cn1)C(=O)N[C@@H](CC1CCNCC1)C(=O)NCC(=O)N1[C@H](C(=O)N[C@@H](Cc2ccc(Cl)cc2)C(=O)N2CCC[C@H]2C(=O)N[C@H](Cc2ccc(-c3ccccc3)cc2)C(=O)O)C[C@@H]2CCCC[C@@H]21 [Example 17] ({Malonyl(2,2-Me2,histaminyl)}-[dR]Q[hArg]P[dR]L[Aib]H[Ala(piperidin-4-yl)]G[Oic][Phe(4-Cl)]P[dBip]-OH) | 78.8% | 25.1 nM | > 10000 nM
